A short description of test [1]: Inhibition of Staphylococcus aureus sortase A using Abz-LPATG-Dap(DNP)-NH2 as substrate preincubated for 1 hr followed by substrate addition by FRET assay.
The subject of test [2] is Staphylococcus aureus. Description: Antibacterial activity against Staphylococcus aureus assessed as inhibition of bacterial invasion in HEK293T cells at 100 uM measured after 2 hrs by flow cytometry relative to control. Type of test: functional, HEK-293T. More on the design: scale not given: the % may be the effect or the level left. A general note: A flow cytometer gives signals particle by particle.

The test system of test [3] is Staphylococcus aureus. Nature of the test: Antibiofilm activity against Staphylococcus aureus assessed as inhibition of biofilm formation measured after 15 to 18 hrs by crystal violet staining assay. Type of test: functional, organism-based.
Test [4] relates to Staphylococcus aureus. Description: Binding affinity to staphylococcus aureus sortase A assessed as covalent adduct formation by UPLC-TOF-MS analysis.
Test [5] has as its system Staphylococcus aureus. Nature of the test: Binding affinity to staphylococcus aureus sortase A assessed as covalent adduct formation at Cys184 by LC-MS/MS analysis.
The subject of test [6] is Staphylococcus aureus. Nature of the test: Binding affinity to staphylococcus aureus sortase A assessed as increase in molecular mass by LC-MS/MS analysis.
The subject of test [7] is Staphylococcus aureus. Description: Antibacterial activity against Staphylococcus aureus assessed as inhibition of bacterial invasion in HEK293T cells at 12.5 uM measured after 2 hrs by flow cytometry relative to control. Type of test: functional, HEK-293T. The arrangement: scale not given: the % may be the effect or the level left.
Test [8] has as its system Staphylococcus aureus. Nature of the test: Antibiofilm activity against Staphylococcus aureus assessed as inhibition of biofilm formation measured after 15 to 18 hrs in the presence of quercetin by crystal violet staining assay. The test is classed as functional, organism-based.
Test [9] concerns Staphylococcus aureus. Description: Antibacterial activity against Staphylococcus aureus assessed as inhibition of bacterial invasion in HEK293T cells at 50 uM measured after 2 hrs by flow cytometry relative to control. Type of test: functional, HEK-293T. The arrangement: scale not given: the % may be the effect or the level left.
The test system of test [10] is Staphylococcus aureus. Nature of the test: Inhibition of Staphylococcus aureus sortase A assessed as reduction in SpA expression at 100 uM measured after overnight incubation by flow cytometry relative to control.
In test [11] the test system is Staphylococcus aureus. Nature of the test: Antibacterial activity against Staphylococcus aureus assessed as inhibition of bacterial invasion in HEK293T cells at 25 uM measured after 2 hrs by flow cytometry relative to control. Type of test: functional, HEK-293T. More on the design: scale not given: the % may be the effect or the level left.
In test [12] the test system is Staphylococcus aureus. Nature of the test: Antibacterial activity against Staphylococcus aureus assessed as inhibition of bacterial invasion in HEK293T cells at 6.25 uM measured after 2 hrs by flow cytometry relative to control. Type of test: functional, HEK-293T. More on the design: scale not given: the % may be the effect or the level left.

pIC50: −log10 of the molar value. Active and inactive are the calls of the source. The rule behind the calls is not given here.

The pIC50 is the negative decadic logarithm of the IC50, by convention in mol/L. One may read the inhibition as the share of the control response that was lost under treatment.

With `CC(C)CNC(=O)c1c(-c2ccc(C(C#N)Cc3ccc(O)cc3)cc2)oc2ccccc12` (stereo unspecified), the pIC50 in test [1] was 5.10; in test [3], 4.84. In addition, the Activity in [2] worked out at 2.8%.

The molecule `CC(C)CNC(=O)c1c(-c2ccc(C(C#N)Cc3ccc(O)c(O)c3)cc2)oc2ccccc12` (stereo unspecified) had a pIC50 in [1] of 4.86.

`CC(C)CNC(=O)c1c(-c2ccc(/C(C#N)=C/c3ccccc3)cc2)oc2ccc(Cl)cc12` showed a pIC50 in test [1] of 4.52.

As to `Cc1ccc(/C=C(\C#N)c2ccc(-c3oc4ccc(Cl)cc4c3C(=O)NCC(C)C)cc2)cc1`, in test [1], the pIC50 is 4.33.

`CC(C)CNC(=O)c1c(-c2ccc(/C(C#N)=C/c3ccc(Br)cc3)cc2)oc2ccc(Cl)cc12` had a pIC50 in test [1] of 4.79.

`COc1ccc(/C=C(\C#N)c2ccc(-c3oc4c(OC)cccc4c3C(=O)NCC(C)C)cc2)cc1OC` showed a pIC50 in test [1] of 4.84.

Turning to `COc1ccc(/C=C(\C#N)c2ccc(-c3oc4c(OC)cccc4c3C(=O)NCC(C)C)cc2)cc1`, the pIC50 in test [1] is 4.92.

With `Cc1cc(C)c(/C=C(\C#N)c2ccc(-c3oc4ccc(Cl)cc4c3C(=O)NCC(C)C)cc2)c(C)c1`, the pIC50 in test [1] is 4.42.

The molecule `Cc1cc(C)c(/C=C(\C#N)c2ccc(-c3oc4ccccc4c3C(=O)NCC(C)C)cc2)c(C)c1` showed a pIC50 in test [1] of 4.49.

On to `C=C(C#N)c1ccc(-c2oc3ccccc3c2C(=O)NCC(C)C)cc1`, for which the pIC50 in [1] is 4.82. In addition, the outcome in test [4] and in test [5] was Active. Further, the Activity in test [6] was 344 Da.

`COc1cccc2c(C(=O)NCC(C)C)c(-c3ccc(/C(C#N)=C/c4ccccc4C(=O)O)cc3)oc12` showed a pIC50 in test [1] of 4.55.

Take `CCc1ccc(/C=C(\C#N)c2ccc(-c3oc4ccccc4c3C(=O)NCC(C)C)cc2)cc1`: the pIC50 in test [1] is 5.03.

`CC(C)CNC(=O)c1c(-c2ccc(/C(C#N)=C/c3ccc(OCc4ccccc4)cc3)cc2)oc2ccccc12` had a negative-log IC50 (pIC50) in [1] of 5.22.

Turning to `CC(C)CNC(=O)c1c(-c2ccc(/C(C#N)=C/c3ccc(Cl)cc3)cc2)oc2ccc(Cl)cc12`, the results for the pIC50 in [1] and in test [3] were 5.17 and 4.27, respectively. Further, in [2], the Activity was 4%.

Molecule `COc1cccc2c(C(=O)NCC(C)C)c(-c3ccc(/C(C#N)=C/c4ccc(Cl)cc4)cc3)oc12` showed a pIC50 in test [1] of 5.23.

For the molecule `COc1ccc(/C=C(\C#N)c2ccc(-c3oc4ccc(Cl)cc4c3C(=O)NCC(C)C)cc2)cc1`, the pIC50 in test [1] is 4.19.

`CC(C)CNC(=O)c1c(-c2ccc(/C(C#N)=C/c3ccc(Br)cc3)cc2)oc2ccccc12` gave a pIC50 in [1] of 4.72.

Molecule `COc1cccc2c(C(=O)NCC(C)C)c(-c3ccc(/C(C#N)=C/c4ccc(C)cc4)cc3)oc12` had a pIC50 in [1] of 5.00.

On to `CCc1ccc(/C=C(\C#N)c2ccc(-c3oc4c(OC)cccc4c3C(=O)NCC(C)C)cc2)cc1`, for which the pIC50 in test [1] is 4.31.

Molecule `Cc1ccc(/C=C(\C#N)c2ccc(-c3oc4ccc(Cl)cc4c3C(=O)NCC(C)C)cc2)cc1C` gave a pIC50 in test [1] of under 4.00.

Take `CC(C)CNC(=O)c1c(-c2ccc(/C(C#N)=C/c3ccc(F)cc3)cc2)oc2ccccc12`: in [1], the pIC50 is 4.71.

As to `COc1ccc(OC)c(/C=C(\C#N)c2ccc(-c3oc4ccccc4c3C(=O)NCC(C)C)cc2)c1`, the pIC50 in test [1] was 4.66.

Molecule `COc1cccc2c(C(=O)NCC(C)C)c(-c3ccc(/C(C#N)=C/c4ccc(Br)cc4)cc3)oc12` showed a pIC50 in [1] of 4.81.

`Cc1ccc(/C=C(\C#N)c2ccc(-c3oc4ccccc4c3C(=O)NCC(C)C)cc2)cc1C` had a pIC50 in test [1] of 4.76.

As to `CC(C)CNC(=O)c1c(-c2ccc(/C(C#N)=C/c3ccccc3)cc2)oc2ccccc12`, the pIC50 in test [1] is 5.06; in [3] it was 4.71. In addition, in [2], the Activity came to 17.9%.

Consider `CC(C)CNC(=O)c1c(-c2ccc(/C(C#N)=C/c3ccc(C(F)(F)F)cc3)cc2)oc2ccccc12`, for which the pIC50 in [1] is 4.91.

The molecule `COc1ccc(/C=C(\C#N)c2ccc(-c3oc4ccccc4c3C(=O)NCC(C)C)cc2)cc1` had a pIC50 in test [1] of 4.92.

In test [1], `CC(C)CNC(=O)c1c(-c2ccc(/C(C#N)=C/c3ccccc3C(=O)O)cc2)oc2ccccc12` had a pIC50 of 5.01.

`COc1cccc2c(C(=O)NCC(C)C)c(-c3ccc(/C(C#N)=C/c4ccc(C)c(C)c4)cc3)oc12` showed a pIC50 in test [1] of under 4.00.

In turn, `COc1ccc(/C=C(\C#N)c2ccc(-c3oc4ccc(Cl)cc4c3C(=O)NCC(C)C)cc2)cc1OC` gave a pIC50 in test [1] of 4.31.

Regarding `COc1ccc(OC)c(/C=C(\C#N)c2ccc(-c3oc4c(OC)cccc4c3C(=O)NCC(C)C)cc2)c1`, the pIC50 in [1] was 4.28.

In [1], `CC(C)CNC(=O)c1c(-c2ccc(/C(C#N)=C/c3ccc(Cl)cc3)cc2)oc2ccccc12` had a pIC50 of 5.01.

Turning to `COc1ccc(OC)c(/C=C(\C#N)c2ccc(-c3oc4ccc(Cl)cc4c3C(=O)NCC(C)C)cc2)c1`, the pIC50 in test [1] is 4.81.

Consider `CCc1ccc(/C=C(\C#N)c2ccc(-c3oc4ccc(Cl)cc4c3C(=O)NCC(C)C)cc2)cc1`, for which the pIC50 in test [1] is 4.86.

Take `COc1ccc(/C=C(\C#N)c2ccc(-c3oc4ccccc4c3C(=O)NCC(C)C)cc2)cc1OC`: the pIC50 in test [1] was 5.02.

`CC(C)CNC(=O)c1c(-c2ccc(C(C#N)Cc3ccc(OCc4ccccc4)cc3)cc2)oc2ccccc12` (stereo unspecified) gave a pIC50 in test [1] of 4.82.

With `COc1cccc2c(C(=O)NCC(C)C)c(-c3ccc(/C(C#N)=C/c4ccccc4)cc3)oc12`, in test [1], the pIC50 is 4.92.

Take `Cc1ccc(/C=C(\C#N)c2ccc(-c3oc4ccccc4c3C(=O)NCC(C)C)cc2)cc1`: the pIC50 in test [1] was 4.85.

Regarding `CC(C)CNC(=O)c1c(-c2ccc(/C(C#N)=C/c3ccc(OCc4ccccc4)c(OCc4ccccc4)c3)cc2)oc2ccccc12`, the values for the pIC50 in test [1], in [8] and in test [3] were 5.48, 5.68 and 5.68, respectively. Also, the Activity in test [7] came out at 7.4%; in test [9], 19.1%; in [11], 16%; in test [2] it was 24%; in test [12] it was 2.9%. Moreover, the inhibition in test [10] was determined as 26.5%.

These data come from ChEMBL document CHEMBL5046250, “Discovery of Sortase A covalent inhibitors with benzofuranene cyanide structures as potential antibacterial agents against Staphylococcus aureus” (Eur J Med Chem, 2022).
